According to the supplement of paper PMC10307832:

The cell lines below were run with CC1=CC(=C(N1C2=CC=C(C=C2)Cl)C)C(=O)CN3CCCCC3 [IU1-47] + Cc1cc(Nc2cc(N3CCN(C)CC3)nc(Sc3ccc(NC(=O)C4CC4)cc3)n2)n[nH]1 [Tozasertib] (partner 0.1 µM) (assay: relative viability (nuclei count vs DMSO), 5 days (fraction); higher = more cells survive). Conditions: first compound 0.08 µM.
Procedure, shortened: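 After 5 days of treatment, lung cancer cells in 1536-well plates were fixed and stained in a single step (final 0.05% Triton X-100, 1% formaldehyde, 1 ug/ml Hoechst) and their nuclei counted on 4× images. Treatment had been applied by pin tool the day after seeding as one drug alone or as a fixed anchor-drug dose with five library-drug doses (not always all listed) in √10 steps. Relative viability is the nuclei count of treated wells divided by that of vehicle wells, and values are medians of duplicate plates.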

| Cell Line | relative viability |
| --- | --- |
| NCI-H522 | 0.52 |
| NCI-H1623 | 0.494 |
| NCI-H727 | 0.655 |
| NCI-H1650 | 0.399 |
| NCI-H1993 | 0.525 |
| SW 1573 | 0.17 |
| NCI-H838 | 0.268 |
| LCLC-103H | 0.576 |
| NCI-H520 | 0.429 |
| NCI-H2126 | 0.905 |
| EMC-BAC-2 | 0.279 |
| NCI-H2085 | 0.903 |
| HCC-366 | 0.15 |
| NCI-H1666 | 0.563 |
| NCI-H596 | 0.935 |
| LK-2 | 0.163 |
| NCI-H2087 | 0.225 |

| Cell Line | relative viability |
| --- | --- |
| NCI-H2342 | 0.493 |
| SK-MES-1 | 1 |
| H3255 | 0.725 |
| COR-L23 | 0.184 |
| COR-L 105 | 0.372 |
| LOU-NH91 | 0.638 |
| ChaGo-K-1 | 0.203 |
| NCI-H2170 | 0.714 |
| HCC-44 | 1.13 |
| SW 900 | 0.512 |
| NCI-H1648 | 0.518 |
| NCI-H2009 | 0.782 |
| NCI-H661 | 0.354 |
| SK-LU-1 | 0.316 |
| NCI-H2228 | 0.267 |
| NCI-H2023 | 0.329 |

Same assay, conditions: first compound 0.253 µM

| Cell Line | relative viability |
| --- | --- |
| NCI-H522 | 0.523 |
| NCI-H1623 | 0.43 |
| NCI-H727 | 0.562 |
| NCI-H1650 | 0.489 |
| NCI-H1993 | 0.619 |
| SW 1573 | 0.167 |
| NCI-H838 | 0.28 |
| LCLC-103H | 0.586 |
| NCI-H520 | 0.419 |
| NCI-H2126 | 0.866 |
| EMC-BAC-2 | 0.305 |
| NCI-H2085 | 0.79 |
| HCC-366 | 0.217 |
| NCI-H1666 | 0.548 |
| NCI-H596 | 0.978 |
| LK-2 | 0.168 |
| NCI-H2087 | 0.224 |

| Cell Line | relative viability |
| --- | --- |
| NCI-H2342 | 0.608 |
| SK-MES-1 | 1.03 |
| H3255 | 0.636 |
| COR-L23 | 0.183 |
| COR-L 105 | 0.387 |
| LOU-NH91 | 0.693 |
| ChaGo-K-1 | 0.216 |
| NCI-H2170 | 0.786 |
| HCC-44 | 1.16 |
| SW 900 | 0.54 |
| NCI-H1648 | 0.569 |
| NCI-H2009 | 0.781 |
| NCI-H661 | 0.373 |
| SK-LU-1 | 0.361 |
| NCI-H2228 | 0.303 |
| NCI-H2023 | 0.363 |

Same assay, conditions: first compound 0.8 µM

| Cell Line | relative viability |
| --- | --- |
| NCI-H522 | 0.516 |
| NCI-H1623 | 0.428 |
| NCI-H727 | 0.589 |
| NCI-H1650 | 0.363 |
| NCI-H1993 | 0.645 |
| SW 1573 | 0.176 |
| NCI-H838 | 0.297 |
| LCLC-103H | 0.531 |
| NCI-H520 | 0.471 |
| NCI-H2126 | 0.818 |
| EMC-BAC-2 | 0.285 |
| NCI-H2085 | 0.705 |
